Measured values: article PMC3313951, “CUP-1 Is a Novel Protein Involved in Dietary Cholesterol Uptake in Caenorhabditis elegans” (PLoS ONE, 2012)
Residue numbers refer to the chain shown, from its start.

Legend:
Test in all cases: FRET by acceptor photobleaching, DHE donor to GFP acceptor, fixed transfected HEK293-FT cells
Assay type in all cases: cell-based
[1] = target: T1, CUP-1-GFP (Cholesterol Uptake Protein-1; ZK721.1/tag-130) (Caenorhabditis elegans, UniProt Q9GYF0); settings: 5 uM DHE, 35 min, 37 °C; soluble GFP control
T1 construct: gene chup-1; full-length CUP-1 (stop codon removed) with C-terminal EGFP (pEGFP-N1), transiently expressed in HEK293-FT cells
T1 sequence (Q9GYF0 19-756): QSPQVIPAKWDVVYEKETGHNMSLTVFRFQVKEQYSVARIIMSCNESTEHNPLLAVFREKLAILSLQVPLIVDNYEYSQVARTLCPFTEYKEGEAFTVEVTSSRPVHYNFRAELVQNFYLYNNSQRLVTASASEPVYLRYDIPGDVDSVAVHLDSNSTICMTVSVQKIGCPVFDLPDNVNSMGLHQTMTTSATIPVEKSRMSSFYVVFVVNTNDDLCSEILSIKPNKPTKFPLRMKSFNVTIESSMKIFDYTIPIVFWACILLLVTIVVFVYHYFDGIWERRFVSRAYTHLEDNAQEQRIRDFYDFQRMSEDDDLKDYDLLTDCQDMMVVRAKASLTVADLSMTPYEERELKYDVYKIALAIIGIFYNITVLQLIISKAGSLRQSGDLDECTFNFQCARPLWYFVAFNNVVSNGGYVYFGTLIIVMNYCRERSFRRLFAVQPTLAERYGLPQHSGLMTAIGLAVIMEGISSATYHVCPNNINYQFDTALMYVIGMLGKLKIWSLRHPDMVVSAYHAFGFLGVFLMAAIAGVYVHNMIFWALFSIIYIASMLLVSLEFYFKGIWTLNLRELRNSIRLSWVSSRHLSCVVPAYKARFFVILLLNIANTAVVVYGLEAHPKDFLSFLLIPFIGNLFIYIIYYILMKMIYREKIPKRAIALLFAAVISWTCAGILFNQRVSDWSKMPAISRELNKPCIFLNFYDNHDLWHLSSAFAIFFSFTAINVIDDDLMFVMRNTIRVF

[2] = target: T2, CUP-1-GFP (Cholesterol Uptake Protein-1; ZK721.1/tag-130) (Caenorhabditis elegans, UniProt Q9GYF0, Y576G); settings: 5 uM DHE, 35 min, 37 °C; transmembrane CRAC motif mutant
T2 construct: gene chup-1; full-length CUP-1 (stop codon removed) with C-terminal EGFP (pEGFP-N1), transiently expressed in HEK293-FT cells; GFP is the FRET acceptor
T2 sequence (Q9GYF0 19-756 Y576G): T1 sequence (Q9GYF0 19-756) with Y558G

[3] = target: T3, CUP-1-GFP (Cholesterol Uptake Protein-1; ZK721.1/tag-130) (Caenorhabditis elegans, UniProt Q9GYF0, Y126G/Y576G); settings: 5 uM DHE, 35 min, 37 °C; double CRAC mutant
T3 construct: gene chup-1; full-length CUP-1 (stop codon removed) with C-terminal EGFP (pEGFP-N1), transiently expressed in HEK293-FT cells; GFP is the FRET acceptor
T3 sequence (Q9GYF0 19-756 Y126G/Y576G): T1 sequence (Q9GYF0 19-756) with Y108G, Y558G

[4] = target: T4, CUP-1-GFP (Cholesterol Uptake Protein-1; ZK721.1/tag-130) (Caenorhabditis elegans, UniProt Q9GYF0, Y126G); settings: 5 uM DHE, 35 min, 37 °C; extracellular CRAC motif mutant
T4 construct: gene chup-1; full-length CUP-1 (stop codon removed) with C-terminal EGFP (pEGFP-N1), transiently expressed in HEK293-FT cells
T4 sequence (Q9GYF0 19-756 Y126G): T1 sequence (Q9GYF0 19-756) with Y108G

FRETeff [1]: > 28% | FRETeff [2]: 16.7% | FRETeff [3]: 17.8%
Compound: CC(C)[C@@H](C)/C=C/[C@@H](C)[C@H]1CC[C@H]2C3=CC=C4C[C@@H](O)CC[C@]4(C)C3=CC[C@]12C [DHE, Dehydroergosterol]
FRETeff [4]: Mutagenization of the extracellular CRAC motif did not result in a statistically significant reduction
